Results from US20050026219A1, “Process for label-free measurement of modified substrate” (Boehringer Ingelheim Pharma GmbH & Co. KG, priority 2001, published 2005).
Where two headings read alike, the source gives them in different places. One block for each compound: values may come before it. Ends that are not written are not given here.

What was measured:
[1] = biological target: EGF-RK (Homo sapiens, UniProt P00533); conditions: cited from earlier work
[2] = biological target: EGF-receptor kinase (EGF-RK) (Homo sapiens, UniProt P00533); conditions: for Optical layer thickness: PGT 10 μg/50 μl, EGF-RK 1 Unit/50 μl, EGF-RK buffer with Brij 35
EGF-receptor kinase (EGF-RK), sequence (P00533 25-1210): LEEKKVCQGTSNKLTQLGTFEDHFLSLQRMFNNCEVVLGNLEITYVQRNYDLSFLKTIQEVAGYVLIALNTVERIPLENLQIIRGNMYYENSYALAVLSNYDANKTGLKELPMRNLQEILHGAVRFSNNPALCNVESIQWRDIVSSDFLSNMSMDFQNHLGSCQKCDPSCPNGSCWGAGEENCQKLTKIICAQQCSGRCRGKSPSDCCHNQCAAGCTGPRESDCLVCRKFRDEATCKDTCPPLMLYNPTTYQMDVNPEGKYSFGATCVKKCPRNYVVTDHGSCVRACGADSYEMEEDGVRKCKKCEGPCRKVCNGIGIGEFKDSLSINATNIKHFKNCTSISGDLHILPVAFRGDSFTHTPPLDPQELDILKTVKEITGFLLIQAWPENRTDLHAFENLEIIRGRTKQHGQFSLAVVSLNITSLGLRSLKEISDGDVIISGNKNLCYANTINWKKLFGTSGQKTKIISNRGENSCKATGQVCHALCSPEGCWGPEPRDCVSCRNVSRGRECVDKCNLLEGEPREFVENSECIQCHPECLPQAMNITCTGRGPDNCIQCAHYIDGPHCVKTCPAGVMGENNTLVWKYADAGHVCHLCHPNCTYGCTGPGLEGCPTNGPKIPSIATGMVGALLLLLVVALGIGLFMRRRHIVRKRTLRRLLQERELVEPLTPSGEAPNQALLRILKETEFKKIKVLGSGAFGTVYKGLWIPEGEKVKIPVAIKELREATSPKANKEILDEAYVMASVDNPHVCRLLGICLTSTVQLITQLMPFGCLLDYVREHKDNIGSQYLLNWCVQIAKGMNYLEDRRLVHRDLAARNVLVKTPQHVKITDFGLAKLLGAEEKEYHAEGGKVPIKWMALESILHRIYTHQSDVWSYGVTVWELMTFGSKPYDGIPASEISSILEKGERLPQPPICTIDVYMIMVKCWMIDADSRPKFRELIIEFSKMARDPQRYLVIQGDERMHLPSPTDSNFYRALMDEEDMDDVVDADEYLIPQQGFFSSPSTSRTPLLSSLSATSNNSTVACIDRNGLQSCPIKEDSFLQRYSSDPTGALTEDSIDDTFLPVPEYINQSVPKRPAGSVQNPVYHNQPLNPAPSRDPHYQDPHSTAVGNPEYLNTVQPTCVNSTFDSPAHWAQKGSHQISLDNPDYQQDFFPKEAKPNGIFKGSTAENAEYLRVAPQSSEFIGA
Description: The quantity depends mainly on the volumes which are still to be pipetted, the buffer being intended to make the volume of the phosphorylation assay up to the total of 100 μl.
Then 10 μl of 10% (v/v) DMSO solution are added, or if a substance is to be tested for possible enzyme-modulating properties, 10 μl of a test substance, i.e. a possible inhibitor or activator, dissolved in 10% (v/v) of DMSO, are pipetted in.
If an enzymatic reaction is to take place, the enzyme is added at this stage.
Then the substrate is added. The amounts of the substrates Poly-(Glu, Tyr) 4:1, (SEQ ID NO.:2) M-2165 and (SEQ ID NO.:3) Raytide™ EL used are specified in each case.
The reaction of phosphorylation is started here by the addition of 10 μl of the 1 mM ATP solution.
The incubation time is 30 minutes at +30° C., for example.
After the end of the incubation period, 20 μl of antibody solution (1.6.) are pipetted in, for example. The receptor, in this case the antibody, is used in excess. The amount which corresponds to an excess can very easily be determined by anyone skilled in the art by means of experiments on binding to a sensor surface to which a substance with a receptor binding site is coupled, with increasing amounts of receptor. In the case of reactions of phosphorylation, increasing amounts of receptor are used with a constant amount of substrate and kinase.
The incubation time with the antibody may be, for example, 30 minutes at ambient temperature.
After the end of the incubation period 50 μl of incubation mixture are taken and pipetted into the prepared measuring cell with the sensor to whose surface is coupled a substance with a receptor binding site.
The layer thickness of the sensor is measured, for example, by Reflectometric Interference Spectroscopy (RIfS) using a SPEKOL 1100 simultaneous spectral photometer made by Messrs Zeiss Jena, modified according to Schmitt et al. 1997.
The receptor (in this case the antibody) is used in excess, so that even if there is a total enzymatic reaction (in this case phosphorylation) of the substrate at least a slight binding signal will still be obtained by the binding of the receptor (antibody) to the sensor surface.
The reaction of phosphorylation is started by the addition of ATP.
At the start of the experiment a control and a complete phosphorylation without the addition of inhibitor are carried out.

[3] = Layer thickness formation (binding) on the phospho-tyrosine-diamino-PEG 2000 sensor surface, RIfS; conditions: for Optical layer thickness (binding) / Optical layer thickness (non-specific binding): EGF-RK buffer
Description: (§1) A conventional aminodextrane (AMD) sensor or a diamino PEG 2000 sensor is used (e.g. Schütz A., 2000; a) Piehler J., et al., 1996; Universität Tübingen, Inst. f. Physikalische and Theoretische Chemie, Germany.)
(§2) 20 μl aliquots of the final solution are immediately added drop by drop to the sensor surface which is about 1 cm^2 in size, and incubated for 8 hours under DMF chamber saturation. Then the sensor is rinsed with DMF and dried in the air.

[4] = Layer thickness formation (binding) on the phospho-tyrosine-AMD sensor surface, RIfS; conditions: for Optical layer thickness (increase): Hepes buffer pH 7.40, Raytide EL or antibody 1.0 μg/50 μl, kinase 1 Unit/50 μl
Description: as §1, §2
The buffer used is p60c-src-kinase buffer, pH=7.40, with the final concentrations of 50 mM of Hepes and 30 mM of magnesium chloride in the incubation mixture.
The layer thickness formation of p60c-src-kinase (1 Unit/50 μl) in the presence of Brij 35 is investigated. […] Increasing concentrations of Brij 35 (% v/v) are added to the buffer.
Use of alternative substrates, kinase and sensors in a process according to the invention. […] The buffer used is Hepes buffer pH=7.40 with 50 mM of Hepes and 30 mM of magnesium chloride. The buffer contains 0.5% v/v mercaptoethanol, 0.05% v/v Brij 35 and 10 μg/50 μl albumin.
First, the antibody, then the kinase and the substrate are measured on their own in order to be able to evaluate any non-specific binding.

[5] = Table 8: EGF-RK buffer with Brij 35, substrate 10 μg/50 μl, EGF-RK 0.1 Unit/50 μl, EGF 0.5 μg/50 μl

EGF-RK, sequence (P00533 25-1210): as above

Compound: O=CN/C=C/c1cc(O)ccc1O [Erbstatin]
Inhibitor strength described in the literature [1]: weak inhibitor

Compound: COC(=O)/C=C/c1cc(O)ccc1O [erbstatin analogue, Erbstatin Analogue]
Optical layer thickness ([2]; 10^-3M inhibitor): 1.170 nm | Optical layer thickness ([2]; 10^-4M inhibitor): 0.728 nm | Optical layer thickness ([2]; 10^-5M inhibitor): 0.702 nm | Optical layer thickness ([2]; 10^-6M inhibitor): 0.442 nm | Optical layer thickness ([2]; 10^-7M inhibitor): 0.489 nm | Optical layer thickness ([2]; 10^-8M inhibitor): 0.526 nm | Inhibition of phosphorylation ([2]; up to 10^-3M): incomplete even at higher concentrations

Optical layer thickness, component on its own ([3]; Table 13 a: Hepes buffer pH 7.40, 0.5% mercaptoethanol, 0.05% Brij 35, albumin 10 μg/50 μl, M-2165 10 μg/50 μl, p60c-src-kinase 2 Units/50 μl): 0.285 nm | Optical layer thickness, component on its own ([4]; Table 13: Hepes buffer pH 7.40, 0.5% mercaptoethanol, 0.05% Brij 35, albumin 10 μg/50 μl, M-2165 10 μg/50 μl, p60c-src-kinase 4 Units/50 μl): 0.230 nm
Compound: Ac-Ile-Tyr-Gly-Glu-Phe-NH2 (Ac-IYGEF-NH2; also: phosphorylated, site not given here) [M-2165, Oligopeptide kinase substrate, Messrs; Bachem]

Optical layer thickness (binding) ([3]; EGF 0.5 Units + Brij 35 (0.01% v/v)): 0.320 nm | Optical layer thickness (binding) ([3]; EGF 0.5 Units, no Brij 35): 0.814 nm | Optical layer thickness (binding) ([3]; EGF 1.0 Units + Brij 35 (0.01% v/v)): 0.484 nm | Optical layer thickness (binding) ([3]; EGF 1.0 Units, no Brij 35): 0.833 nm | Optical layer thickness, component on its own [3, 5]: 0.355 nm
Compound: EGF: Epidermal Growth Factor, activator for phosphorylation with EGF-RK

Optical layer thickness, component on its own ([3]; Table 12: EGF-RK buffer with Brij 35, Raytide EL 2 μg/50 μl, EGF-RK 0.5 Units/50 μl): 0.127 nm | Optical layer thickness (increase) ([4]; with 0.001% Brij 35 (v/v)): 0.067 nm | Optical layer thickness (increase) ([4]; with 0.002% Brij 35 (v/v)): 0.083 nm | Optical layer thickness (increase) ([4]; with 0.01% Brij 35 (v/v)): 0.000 nm | Optical layer thickness (increase) ([4]; with 0.02% Brij 35 (v/v)): 0.000 nm | Optical layer thickness (increase) ([4]; with 0.1% Brij 35 (v/v)): 0.000 nm | Optical layer thickness (increase) ([4]; with 0.2% Brij 35 (v/v)): 0.000 nm | Optical layer thickness (increase) ([4]; without Brij 35): 0.169 nm
Compound: Lys-Lys-Lys-Gly-Pro-Trp-Leu-Glu-Glu-Glu-Glu-Glu-Ala-Tyr-Gly-Trp-Leu-Asp-Phe (KKKGPWLEEEEEAYGWLDF; also: phosphorylated modified substrate, site not given here) [Raytide ™ EL, Protein-tyrosine-kinase substrate, Messrs; Calbiochem]

Optical layer thickness (non-specific binding) ([3]; 0.5 μg PGT): 0.064 nm | Optical layer thickness (non-specific binding) ([3]; 1.0 μg PGT): 0.026 nm | Optical layer thickness (non-specific binding) ([3]; 2.0 μg PGT): 0.000 nm | Optical layer thickness (non-specific binding) ([3]; 5.0 μg PGT): 0.052 nm | Optical layer thickness (non-specific binding) ([3]; 10 μg PGT): 0.065 nm | Optical layer thickness (non-specific binding) ([3]; 20 μg PGT): 0.054 nm | Optical layer thickness (non-specific binding) ([3]; 50 μg PGT): 0.113 nm | Optical layer thickness (non-specific binding) ([3]; 100 μg PGT): 0.084 nm | Optical layer thickness, component on its own [3, 5]: 0 nm | Optical layer thickness, component on its own ([3]; Table 9: EGF-RK buffer with Brij 35, substrate 10 μg/50 μl, EGF-RK 2 Units/50 μl): 0 nm
Compound: Poly-(Glu, Tyr) 4:1 [PGT]
